Data as given in US11167007B2, “FOXM1 modulators and uses thereof” (City of Hope, priority 2016, dated 2021).

Key:
[1] = target: T1, AR with a 24 glutamine tract (normal) (Homo sapiens, UniProt P10275, DUP80-80); assay: Luciferase reporter assay in HEK293 cells transfected with ARQ24; format: cell-based; conditions: HEK293, AR 24 glutamines, FIG. 2C
T1 construct: expressed in transfected cells; host or cells: HEK293
Excerpt: (§1) Luciferase Reporter Assay. Cells were transfected using Lipofectamine Plus (Invitrogen) with a normalization plasmid (pRL-SV40, Promega) and an androgen responsive plasmid (MMTV-luciferase or PSA-luciferase) as described in Jones et al, ACS Chem Biol, 3(7):412-8 (2008), and, where indicated, with an shRNA plasmid targeting FOXM1 (adapted for mouse FOXM1 sequence targeting) a scrambled control shRNA plasmid, or ARQ24 or ARQ65 plasmids. Christensen et al, PLoS One, 8(1):e54556 (2013). The following day, cells and drugs were distributed to 96-well plates. 24 hours later, luciferase activity was assessed by a dual luciferase assay kit (Promega) on the Tecan plate reader. Samples were run in quadruplicates and a Student's t test was performed to determine significance, where p<0.05 was considered significant.
(§2) SBMA is caused by the activity of polyglutamine-expanded AR, and experiments were conducted to investigate the effects of thiostrepton against polyglutamine-expanded AR. AR-negative HEK293 cells were transfected with plasmids encoding AR with a 24 glutamine tract (normal) or with a 65 glutamine tract (disease associated). The polyglutamine-expanded AR was less transcriptionally active than the normal AR, as has been previously documented for such constructs. Kazemi-Esfarjani et al, Hum Mol Genet, 4:523-527 (1995).

β-catenin = assay: Western blot of β-catenin in nuclear and cytoplasmic fractions of GT1-7 cells; format: cell-based, murine; conditions: nuclear fraction, FIG. 3D
Excerpt: Western Blot. Cell lysates was separated on a 6% SDS page gel and transferred to a nitrocellulose membrane. The membrane was blocked for one hour in 5% skim milk dissolved in TBS-T and probed with the following antibodies ([…]): FoxM1 (rabbit, GeneTex), AR: 441 (mouse, Santa Cruz Biotechnology), β-catenin (rabbit 9562, Cell Signaling Technology), p84 (mouse, GeneTex) and actin (mouse, Santa Cruz Biotechnology). Horse radish peroxidase linked secondary antibodies were used along with ECL reagents for visualization. Western blots were quantified using Quantity One analysis software (BioRad).
It has been previously reported that thiostrepton causes decreased levels of FOXM1. Hegde et al, Nat Chem, 3(9):725-31 (2011); Gartel, Front Oncol, 3:150 (2013). […] The nuclear association between FOXM1 and β-catenin increases the transcriptional activity of both factors. Zhang et al, Cancer Cell, 20(4):427-42 (2011). β-catenin is a key AR coactivator in a variety of cells. Yang, J Biol Chem, 277(13):11336-44 (2002); Truica et al, Cancer Res, 60(17):4709-13 (2000). The inventors believed that thiostrepton could inhibit AR activity by limiting access to nuclear β-catenin via FOXM1 depletion. […] As expected, control actin protein was observed primarily in cytoplasmic fraction.

[2] = target: T2, AR with a 65 glutamine tract (disease associated) (Homo sapiens, UniProt P10275, INS80QQQQQQQQQQQQQQQQQQQQQQQQQQQQQQQQQQQQQQQQQQ); assay: Luciferase reporter assay in HEK293 cells transfected with ARQ65; format: cell-based; conditions: HEK293, AR 65 glutamines, FIG. 2C
T2 construct: expressed in transfected cells; host or cells: HEK293
T2 sequence (P10275 with tags, fused parts or gaps with the stated changes): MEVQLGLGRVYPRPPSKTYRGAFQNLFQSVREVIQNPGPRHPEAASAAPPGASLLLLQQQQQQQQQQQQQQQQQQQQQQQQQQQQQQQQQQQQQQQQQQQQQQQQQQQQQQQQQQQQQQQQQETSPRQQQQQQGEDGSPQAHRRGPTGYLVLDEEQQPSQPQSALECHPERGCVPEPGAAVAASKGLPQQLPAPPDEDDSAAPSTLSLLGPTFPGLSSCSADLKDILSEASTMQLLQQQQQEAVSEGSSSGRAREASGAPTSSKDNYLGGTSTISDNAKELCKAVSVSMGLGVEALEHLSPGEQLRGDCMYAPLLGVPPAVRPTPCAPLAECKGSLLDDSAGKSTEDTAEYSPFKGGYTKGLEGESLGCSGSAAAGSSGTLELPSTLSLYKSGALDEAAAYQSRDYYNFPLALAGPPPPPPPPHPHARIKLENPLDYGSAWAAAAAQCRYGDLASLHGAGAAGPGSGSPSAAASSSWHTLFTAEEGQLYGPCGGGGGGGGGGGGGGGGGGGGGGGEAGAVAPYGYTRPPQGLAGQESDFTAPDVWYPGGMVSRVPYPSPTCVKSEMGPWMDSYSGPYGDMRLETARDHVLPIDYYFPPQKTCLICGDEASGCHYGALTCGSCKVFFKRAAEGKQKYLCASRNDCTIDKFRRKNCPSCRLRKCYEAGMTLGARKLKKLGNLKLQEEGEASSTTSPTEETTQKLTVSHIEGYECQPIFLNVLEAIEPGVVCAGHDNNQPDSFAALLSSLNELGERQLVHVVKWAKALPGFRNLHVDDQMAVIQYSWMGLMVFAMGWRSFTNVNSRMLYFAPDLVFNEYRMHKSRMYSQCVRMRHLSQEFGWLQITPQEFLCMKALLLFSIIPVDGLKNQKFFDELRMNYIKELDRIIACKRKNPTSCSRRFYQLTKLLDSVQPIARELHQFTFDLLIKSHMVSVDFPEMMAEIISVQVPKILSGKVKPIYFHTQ
Excerpt: as §1, §2

T1 sequence (P10275 with tags, fused parts or gaps DUP80-80): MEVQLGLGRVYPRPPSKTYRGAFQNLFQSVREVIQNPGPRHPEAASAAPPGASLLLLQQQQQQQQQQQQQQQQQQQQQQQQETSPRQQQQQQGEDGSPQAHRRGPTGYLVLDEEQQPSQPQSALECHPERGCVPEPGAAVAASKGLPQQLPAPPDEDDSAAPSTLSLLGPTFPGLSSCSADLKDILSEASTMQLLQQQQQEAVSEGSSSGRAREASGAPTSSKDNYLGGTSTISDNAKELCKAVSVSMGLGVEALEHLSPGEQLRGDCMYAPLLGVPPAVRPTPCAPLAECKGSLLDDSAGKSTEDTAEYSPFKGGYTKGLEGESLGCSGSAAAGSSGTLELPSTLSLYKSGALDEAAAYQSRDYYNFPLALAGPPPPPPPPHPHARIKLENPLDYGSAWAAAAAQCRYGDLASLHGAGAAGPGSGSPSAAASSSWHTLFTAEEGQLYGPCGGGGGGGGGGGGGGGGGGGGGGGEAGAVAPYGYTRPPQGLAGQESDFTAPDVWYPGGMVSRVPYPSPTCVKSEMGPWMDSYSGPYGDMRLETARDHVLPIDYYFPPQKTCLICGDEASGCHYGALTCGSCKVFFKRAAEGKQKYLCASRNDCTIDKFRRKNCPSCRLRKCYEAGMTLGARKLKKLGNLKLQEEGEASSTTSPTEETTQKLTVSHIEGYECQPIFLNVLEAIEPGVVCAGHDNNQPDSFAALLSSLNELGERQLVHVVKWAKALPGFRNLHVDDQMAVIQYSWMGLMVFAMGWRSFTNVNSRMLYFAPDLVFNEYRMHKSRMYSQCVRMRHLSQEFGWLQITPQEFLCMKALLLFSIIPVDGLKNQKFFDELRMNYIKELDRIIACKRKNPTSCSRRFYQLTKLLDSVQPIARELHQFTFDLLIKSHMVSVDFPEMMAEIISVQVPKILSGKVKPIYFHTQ

## C=C(NC(=O)C(=C)NC(=O)c1csc(C2=N[C@@H]3c4csc(n4)[C@H]4NC(=O)c5csc(n5)[C@H]([C@](C)(O)[C@@H](C)O)NC(=O)[C@H]5CSC(=N5)/C(=C/C)NC(=O)[C@H]([C@@H](C)O)NC(=O)c5csc(n5)[C@]3(CC2)NC(=O)[C@H](C)NC(=O)C(=C)NC(=O)[C@H](C)NC(=O)[C@H]([C@@H](C)CC)N[C@@H]2C=Cc3c([C@H](C)O)cc(nc3[C@H]2O)C(=O)O[C@@H]4C)n1)C(N)=O [thiostrepton]
[1]
  inhibition of non-expanded AR activity (luciferase): inhibited
β-catenin
  levels of nuclear β-catenin: lower levels
[2]
  inhibition of polyglutamine-expanded AR activity (luciferase): inhibited
